Experiment [1] has as its system RKO (RKOp27) human colon adenocarcinoma cells. Put plainly: Alamar Blue cell viability assay, anti-proliferative/cytotoxic activity on proliferating (uninduced) RKOp27 cells. To be noted: 72 hours incubation, absence of the inducer Ponasterone A, read-out: IC50 RKO p27 uninduced (proliferating). It is filed as cell-based. On the procedure: The anti-proliferative/cytotoxic activity of the compounds described herein, can be tested on subclones of RKO (RKOp27) human colon adenocarcinoma cells (Schmidt et al., Oncogene 19, 2423-2429; 2000) using the Alamar Blue cell viability assay (described in O'Brien et al. Eur J Biochem 267, 5421-5426, 2000). The compounds are dissolved as 20 mM solutions in dimethylsulfoxide (DMSO) and subsequently diluted in semi-logarithmic steps. DMSO dilutions are further diluted 1:100 into Dulbecco's modified Eagle's medium (DMEM) containing 10% fetal calf serum to a final concentration twice as much as the final concentration in the test. RKO subclones are seeded into 96 well flat bottom plates at a density of 5000 cells per well in a volume of 50 μl per well. 24 hours after seeding the 50 μl each of the compound dilutions in DMEM medium are added into each well of the 96 Well plate. Each compound dilution is tested as quadruplicates. Wells containing untreated control cells are filled with 50 μl DMEM medium containing 1% DMSO. The cells are then incubated with the substances for 72 hours at 37° C. in a humified atmosphere containing 5% carbon dioxide. To determine the viability of the cells, 10 μl of an Alamar Blue solution (Biosource) are added and the fluorescence is measured at an extinction of 544 nm and an emission of 590 nm. For the calculation of the cell viability the emission value from untreated cells is set as 100% viability and the emission rates of treated cells are set in relation to the values of untreated cells. Viabilities are expressed as % values.
The corresponding IC50 values of the compounds for anti-proliferative/cytotoxic activity are determined from the concentration-effect curves.
Representative IC50 values for anti-proliferation/cytotoxicity determined in the mentioned assay follow from the following table A, in which the numbers of the compounds correspond to the numbers of the examples.

The test system of experiment [2] is RKO colon adenocarcinoma cells (RKOp27) arrested by the expression of ectopic p27Kip1. Put plainly: Alamar Blue cell viability assay on RKOp27 cells arrested by p27Kip1 expression induced by Ponasterone A. Format: cell-based. The following applies: Homo sapiens, 72 hours incubation, 10 μM Ponasterone A, read-out: IC50 RKO p27 induced (arrested). On the procedure:
To determine the cell cycle specific mode of action, subclones of RKO colon adenocarcinoma cells (RKOp27 or RKOp21 as described by Schmidt et al. in Oncogene 19, 2423-2429; 2000) are seeded into 96 well flat bottom plates at a density of 15000 cells per well in a volume of 50 μl per well in DMEM growth medium with 10% FCS containing 10 μM Ponasterone A. 24 hours after seeding the 50 μl each of the compound dilutions in DMEM medium are added into each well of the 96 Well plate. Each compound dilution is tested as quadruplicates. Wells containing untreated control cells are filled with 50 μl DMEM medium containing 1% DMSO. The cells are then incubated with the substances for 72 hours at 37° C. in a humidified atmosphere containing 5% carbon dioxide. To determine the viability of the cells, 10 μl of an Alamar Blue solution (Biosource) are added and the fluorescence was measured at an extinction of 544 nm and an emission of 590 nm. For the calculation of the cell viability the emission value from untreated cells is set as 100% viability and the emission rates of treated cells are set in relation to the values of untreated cells. Viabilities are expressed as % values. Viability is compared of proliferating cells grown in the absence of the inducer Ponasterone A, versus viability of cells arrested by the expression of ectopic p27Kip1 induced by Ponasterone A.

A value given as a limit tells only on which side of the number the result lay.

As a reminder, the IC50 is the concentration that gives 50% inhibition. Turning to `COc1ccccc1CCC(=O)Nc1sc2c(c1C#N)CCN(C(=O)Cn1ccnc1C)C2` [Example 130, N-{3-Cyano-6-[2-(2-methyl-imidazol-1-yl)-ethanoyl]-4,5,6,7-tetrahydro-thieno[2,3-c]pyridin-2-yl}-3-(2-methoxy-phenyl)-propionamide], the IC50 is at most 300 nM in experiment [1] and at least 40 µM in experiment [2].

Turning to `COc1ccc(C)cc1CCC(=O)Nc1sc2c(c1C#N)CCN(C(=O)CCc1cc(C)ccn1)C2` [Example 34, N-{3-Cyano-6-[3-(4-methyl-pyridin-2-yl)-propanoyl]-4,5,6,7-tetrahydro-thieno[2,3-c]pyridin-2-yl}-3-(2-methoxy-5-methyl-phenyl)-propionamide], the IC50 in experiment [1] is 300 to 2000 nM; in experiment [2], over 100 µM.

Take `COc1ccccc1CCC(=O)Nc1sc2c(c1C#N)CCN(C(=O)Cn1cc(C)nc1C)C2` [Example 147, N-{3-Cyano-6-[2-(2,4-dimethyl-imidazol-1-yl)-ethanoyl]-4,5,6,7-tetrahydro-thieno[2,3-c]pyridin-2-yl}-3-(2-methoxy-phenyl)-propionamide]: the IC50 in experiment [1] was at most 300 nM; in experiment [2] it was at least 10 µM.

For `COCC(=O)N1CCc2c(sc(NC(=O)CCc3cccc(OC)c3)c2C#N)C1` [Example 18, N-[3-Cyano-6-(2-methoxy-ethanoyl)-4,5,6,7-tetrahydro-thieno[2,3-c]pyridin-2-yl]-3-(3-methoxy-phenyl)-propionamide], the IC50 in experiment [1] was 300 to 2000 nM; in experiment [2], over 100 µM.

Take `CCOc1ccccc1CCC(=O)Nc1sc2c(c1C#N)CCN(C(=O)COC)C2` [Example 19, N-[3-Cyano-6-(2-methoxy-ethanoyl)-4,5,6,7-tetrahydro-thieno[2,3-c]pyridin-2-yl]-3-(2-ethoxy-phenyl)-propionamide]: the IC50 is at most 300 nM in experiment [1] and over 100 µM in experiment [2].

Turning to `CCOc1ccccc1CCC(=O)Nc1sc2c(c1C#N)CCN(C(=O)CCn1ccnc1)C2` [Example 102, N-[3-Cyano-6-(3-Imidazol-1-yl-propanoyl)-4,5,6,7-tetrahydro-thieno[2,3-c]pyridin-2-yl]-3-(2-ethoxy-phenyl)-propionamide], the values for the IC50 in experiment [1] and in experiment [2] were at most 300 nM and at least 10 µM, respectively.

In the case of `CCOc1ccccc1C(C)CC(=O)Nc1sc2c(c1C#N)CCN(C(=O)Cn1ccnc1C)C2` (racemic) [Example 128, (RS)—N-{3-Cyano-6-[2-(2-methyl-imidazol-1-yl)-ethanoyl]-4,5,6,7-tetrahydro-thieno[2,3-c]pyridin-2-yl}-3-(2-ethoxy-phenyl)-butyramide], the IC50 was at most 300 nM in experiment [1] and at least 10 µM in experiment [2].

As for `COc1ccccc1C(C)CC(=O)Nc1sc2c(c1C#N)CCN(C(=O)Cn1ccnc1C)C2` (racemic) [Example 127, (RS)—N-{3-Cyano-6-[2-(2-methyl-imidazol-1-yl)-ethanoyl]-4,5,6,7-tetrahydro-thieno[2,3-c]pyridin-2-yl}-3-(2-methoxy-phenyl)-butyramide], the IC50 was at most 300 nM in experiment [1] and at least 40 µM in experiment [2].

Take `CCOc1ccccc1CCC(=O)Nc1sc2c(c1C#N)CCN(C(=O)CCc1cccnc1)C2` [Example 22, N-[3-Cyano-6-(3-pyridin-3-yl-propanoyl)-4,5,6,7-tetrahydro-thieno[2,3-c]pyridin-2-yl]-3-(2-ethoxy-phenyl)-propionamide]: the IC50 in experiment [1] is at most 300 nM; in experiment [2], over 100 µM.

Consider `COc1ccccc1CCC(=O)Nc1sc2c(c1C#N)CCN(C(=O)CCc1nccn1C)C2` [Example 116, N-{3-Cyano-6-[3-(1-methyl-1H-imidazol-2-yl)-propanoyl]-4,5,6,7-tetrahydro-thieno[2,3-c]pyridin-2-yl}-3-(2-methoxy-phenyl)-propionamide], for which the IC50 was at most 300 nM in experiment [1] and at least 10 µM in experiment [2].

Turning to `CCOc1ccccc1CCC(=O)Nc1sc2c(c1C#N)CCN(C(=O)Cn1ccnc1C)C2` [Example 131, N-{3-Cyano-6-[2-(2-methyl-imidazol-1-yl)-ethanoyl]-4,5,6,7-tetrahydro-thieno[2,3-c]pyridin-2-yl}-3-(2-ethoxy-phenyl)-propionamide], the results for the IC50 in experiment [1] and in experiment [2] were at most 300 nM and at least 40 µM, respectively.

For `CCOc1ccccc1C(C)CC(=O)Nc1sc2c(c1C#N)CCN(C(=O)Cn1cnc(C)c1)C2` (racemic) [Example 136, (RS)—N-{3-Cyano-6-[2-(4-methyl-imidazol-1-yl)-ethanoyl]-4,5,6,7-tetrahydro-thieno[2,3-c]pyridin-2-yl}-3-(2-ethoxy-phenyl)-butyramide], the IC50 in experiment [1] is 300 to 2000 nM; in experiment [2], at least 10 µM.

As to `COc1ccccc1CCC(=O)Nc1sc2c(c1C#N)CCN(C(=O)Cc1ccccn1)C2` [Example 59, N-[3-Cyano-6-(2-pyridin-2-yl-ethanoyl)-4,5,6,7-tetrahydro-thieno[2,3-c]pyridin-2-yl]-3-(2-methoxy-phenyl)-propionamide], the results for the IC50 in experiment [1] and in experiment [2] were at most 300 nM and at least 40 µM, respectively.

`CCOc1ccccc1CCC(=O)Nc1sc2c(c1C#N)CCN(C(=O)COC(C)=O)C2` [Example 10, Acetic acid 2-{3-cyano-2-[3-(2-ethoxy-phenyl)-propanoylamino]-4,7-dihydro-5H-thieno[2,3-c]pyridin-6-yl}-2-oxo-ethyl ester]: the results for the IC50 in experiment [1] and in experiment [2] were at most 300 nM and over 100 µM, respectively.

As for `CCOc1ccccc1C(C)CC(=O)Nc1sc2c(c1C#N)CCN(C(=O)Cn1ccnc1)C2` (racemic) [Example 83, (RS)—N-[3-Cyano-6-(2-imidazol-1-yl-ethanoyl)-4,5,6,7-tetrahydro-thieno[2,3-c]pyridin-2-yl]-3-(2-ethoxy-phenyl)-butyramide], the IC50 is at most 300 nM in experiment [1] and at least 40 µM in experiment [2].

Turning to `CCOc1ccccc1CCC(=O)Nc1sc2c(c1C#N)CCN(C(=O)Cc1ccccn1)C2` [Example 26, N-[3-Cyano-6-(2-pyridin-2-yl-ethanoyl)-4,5,6,7-tetrahydro-thieno[2,3-c]pyridin-2-yl]-3-(2-ethoxy-phenyl)-propionamide], the IC50 in experiment [1] is at most 300 nM; in experiment [2], at least 10 µM.

Take `COc1cccc(CCC(=O)Nc2sc3c(c2C#N)CCN(C(=O)CCc2cccnc2)C3)c1` [Example 14, N-[3-Cyano-6-(3-pyridin-3-yl-propanoyl)-4,5,6,7-tetrahydro-thieno[2,3-c]pyridin-2-yl]-3-(3-methoxy-phenyl)-propionamide]: the IC50 was 300 to 2000 nM in experiment [1] and over 100 µM in experiment [2].

`COc1cccc(CCC(=O)Nc2sc3c(c2C#N)CCN(C(=O)CCCO)C3)c1` [Example 21, N-[3-Cyano-6-(4-hydroxy-butanoyl)-4,5,6,7-tetrahydro-thieno[2,3-c]pyridin-2-yl]-3-(3-methoxy-phenyl)-propionamide]: the IC50 in experiment [1] is 300 to 2000 nM; in experiment [2] it was over 100 µM.

In the case of `COc1ccc(C)cc1CCC(=O)Nc1sc2c(c1C#N)CCN(C(=O)CCn1ccnc1)C2` [Example 40, N-[3-Cyano-6-(3-imidazol-1-yl-propanoyl)-4,5,6,7-tetrahydro-thieno[2,3-c]pyridin-2-yl]-3-(2-methoxy-5-methyl-phenyl)-propionamide], the IC50 was 300 to 2000 nM in experiment [1] and at least 40 µM in experiment [2].

Regarding `CCOc1ccccc1C(C)CC(=O)Nc1sc2c(c1C#N)CCN(C(=O)CCc1cccnc1)C2` (racemic) [Example 78, (RS)—N-[3-Cyano-6-(3-pyridin-3-yl-propanoyl)-4,5,6,7-tetrahydro-thieno[2,3-c]pyridin-2-yl]-3-(2-ethoxy-phenyl)-butyramide], the IC50 was 300 to 2000 nM in experiment [1] and at least 40 µM in experiment [2].

For the compound `CCCC(=O)N1CCc2c(sc(NC(=O)CCc3cccc(OC)c3)c2C#N)C1` [Example 23, N-(6-Butyryl-3-cyano-4,5,6,7-tetrahydro-thieno[2,3-c]pyridin-2-yl)-3-(3-methoxy-phenyl)-propionamide], the IC50 in experiment [1] is at most 300 nM; in experiment [2], over 100 µM.

The values above are taken from patent US7763728B2, “Tetrahydropyridothiophenes” (4SC AG, priority 2005, dated 2010).
